Among the test systems are MDA-MB-231; Malme-3M; CAKI-1; PC-3; SK-MEL-5; T47D; NCI-H23; A498; OVCAR-5; IGROV-1; ACHN; K562; NCI/ADR-RES; Hs-578T; COLO 205; DU-145; NCI-H460; HCT-116; SF-268.
Test in all cases: NCI anticancer screen, dose series, 48 h

The structures appear in SMILES notation.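 Results reflect a 48-hour exposure of cells in 96-well plates to compound at five concentrations. The concentration for 50% growth inhibition is given as GI50.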 The source made the active and inactive calls. No stated cut-off is given here; in the data, active = GI50 up to about 1.1 µM and inactive = higher.

As for `COC(=O)NN(C(=O)OC)c1c(-c2ccccc2)nc(SC)n1N`, the GI50 in the assay with MDA-MB-231, in the assay with Malme-3M, with CAKI-1, with PC-3, in the assay on SK-MEL-5 and with T47D was > 100 µM (inactive) each time. Further, the GI50 in the assay with NCI-H23, with A498, with OVCAR-5, in the assay on IGROV-1, with ACHN and in the assay with K562 was > 100 µM (inactive) in each case. Further, the GI50 in the assay with NCI/ADR-RES, in the assay with Hs-578T, in the assay with COLO 205, in the assay with DU-145, with NCI-H460 and with HCT-116 was > 100 µM (inactive) throughout. Also, the GI50 in the assay on SF-268 was > 100 µM (inactive).

Consider `NC(=S)NN=Cc1ccccc1OCc1cccc(COc2ccccc2C=NNC(N)=S)n1`, for which the GI50 was 6.92 µM (inactive) in the assay with MDA-MB-231; > 54.3 µM (inactive) with Malme-3M; > 100 µM (inactive) with CAKI-1; > 57.7 µM (inactive) in the assay on PC-3; > 100 µM (inactive) in the assay on SK-MEL-5; > 38.2 µM (inactive) in the assay on T47D. Also, the GI50 is 29.8 µM (inactive) in the assay on NCI-H23; 17.5 µM (inactive) with A498; 29.9 µM (inactive) in the assay with OVCAR-5; 13.7 µM (inactive) in the assay on IGROV-1; 20.6 µM (inactive) in the assay on ACHN; > 100 µM (inactive) in the assay with K562. Moreover, the GI50 was 40.6 µM (inactive) in the assay on NCI/ADR-RES; 18.1 µM (inactive) with Hs-578T; > 87.7 µM (inactive) in the assay with COLO 205; 13.7 µM (inactive) in the assay with DU-145; > 58.6 µM (inactive) in the assay with NCI-H460; 32.7 µM (inactive) with HCT-116. The GI50 with SF-268 was 5.46 µM (inactive).

Consider `Cc1nn(-c2ccccc2)c2c1C(c1cc3ccccc3nc1Cl)NC(=S)N2` (configuration not stated), for which the GI50 in the assay on MDA-MB-231 was > 100 µM (inactive); in the assay with Malme-3M, > 100 µM (inactive); with CAKI-1, 59.4 µM (inactive); in the assay with PC-3 it was 67.1 µM (inactive); with SK-MEL-5, 58.6 µM (inactive); with T47D, > 100 µM (inactive). For the same molecule, the GI50 in the assay with NCI-H23 was 67.3 µM (inactive); in the assay with A498 it was 71 µM (inactive); in the assay on OVCAR-5, > 100 µM (inactive); in the assay on IGROV-1 it was 12 µM (inactive); in the assay with ACHN, 54.2 µM (inactive); in the assay on K562, 39.5 µM (inactive). In addition, the GI50 is 46.3 µM (inactive) with NCI/ADR-RES; 37.7 µM (inactive) with Hs-578T; > 100 µM (inactive) in the assay on COLO 205; > 100 µM (inactive) in the assay with DU-145; > 100 µM (inactive) with NCI-H460; 36.1 µM (inactive) with HCT-116. Besides, in the assay on SF-268, the GI50 is 34.8 µM (inactive).

On to `N[C@H]1CCN(c2c(F)cc3c(=O)c(C(=O)O)cn4c3c2Oc2c-4ccc3c2ccc2ccccc23)C1`, for which the GI50 was 4.91 µM (inactive) in the assay with MDA-MB-231; 16.9 µM (inactive) in the assay on Malme-3M; 2.79 µM (inactive) in the assay on CAKI-1; 0.935 µM (active) in the assay on PC-3; 0.776 µM (active) with SK-MEL-5; 2.65 µM (inactive) with T47D. Further, the GI50 was 1.22 µM (inactive) in the assay with NCI-H23; 10.4 µM (inactive) in the assay on A498; 1.58 µM (inactive) with OVCAR-5; 0.284 µM (active) with IGROV-1; 0.23 µM (active) with ACHN; 0.583 µM (active) in the assay on K562. Also, the GI50 with NCI/ADR-RES was 2.8 µM (inactive); in the assay with Hs-578T it was 0.731 µM (active); in the assay with COLO 205 it was 1.13 µM (inactive); with DU-145, 0.942 µM (active); in the assay with NCI-H460, 0.115 µM (active); in the assay on HCT-116, 0.492 µM (active). In addition, in the assay on SF-268, the GI50 is 0.288 µM (active).

Take `COCCOC1=CC(=O)c2c(O)ccc(O)c2C1=O`: the GI50 in the assay with MDA-MB-231 was 1.75 µM (inactive); in the assay on Malme-3M, 0.167 µM (active); in the assay on CAKI-1, 2.59 µM (inactive); in the assay with PC-3, 2.34 µM (inactive); in the assay with SK-MEL-5, 0.163 µM (active); with T47D it was 2.36 µM (inactive). For the same molecule, the GI50 is 1.12 µM (active) in the assay with NCI-H23; 1.79 µM (inactive) in the assay with A498; 1.61 µM (inactive) in the assay on OVCAR-5; 1.72 µM (inactive) with IGROV-1; 1.87 µM (inactive) in the assay on ACHN; 2.69 µM (inactive) with K562. The GI50 was 2.44 µM (inactive) with NCI/ADR-RES; 4.04 µM (inactive) in the assay on Hs-578T; 0.284 µM (active) with COLO 205; 0.893 µM (active) in the assay on DU-145; 1.58 µM (inactive) in the assay with NCI-H460; 0.285 µM (active) with HCT-116. The GI50 in the assay with SF-268 was 1.89 µM (inactive).

As for `c1ccc(C(/C(=N/c2ccc(Cc3ccc(/N=C(\C(c4ccccc4)c4ccccc4)N4CC4)cc3)cc2)N2CC2)c2ccccc2)cc1`, the GI50 with MDA-MB-231 was 12.2 µM (inactive); in the assay with Malme-3M it was 14.9 µM (inactive); with CAKI-1, 6.95 µM (inactive); in the assay on PC-3, 3.83 µM (inactive); in the assay on SK-MEL-5, 5.04 µM (inactive); with T47D, 2.61 µM (inactive). Further, the GI50 with NCI-H23 was 10.5 µM (inactive); in the assay on A498, 12.5 µM (inactive); in the assay with OVCAR-5, 11.5 µM (inactive); in the assay with IGROV-1, 0.942 µM (active); with ACHN it was 5.82 µM (inactive); with K562 it was 2.33 µM (inactive). Besides, the GI50 with NCI/ADR-RES was 9.25 µM (inactive); in the assay with Hs-578T it was 10.6 µM (inactive); in the assay on COLO 205, 3.27 µM (inactive); in the assay on DU-145 it was 12.6 µM (inactive); with NCI-H460 it was 1.78 µM (inactive); in the assay with HCT-116, 4.36 µM (inactive). Also, the GI50 in the assay on SF-268 was 4.86 µM (inactive).

On to `CC(=O)C(C)CCOC1(C)OCCC1C` (configuration not stated), for which the GI50 in the assay with MDA-MB-231, in the assay on Malme-3M, in the assay with CAKI-1, in the assay with PC-3, in the assay with SK-MEL-5 and in the assay on T47D was > 100 µM (inactive) in each case. The GI50 in the assay with NCI-H23, in the assay on A498, with OVCAR-5, with IGROV-1, with ACHN and in the assay on K562 was > 100 µM (inactive) each time. Besides, the GI50 in the assay on NCI/ADR-RES was > 100 µM (inactive); with Hs-578T it was > 100 µM (inactive); in the assay on COLO 205 it was 65 µM (inactive); in the assay on DU-145, > 100 µM (inactive); in the assay on NCI-H460 it was > 100 µM (inactive); in the assay with HCT-116, > 100 µM (inactive). Also, the GI50 in the assay with SF-268 is > 100 µM (inactive).

As to `COc1ccc(-c2c(CN3CCOCC3)sc3nc4ccccc4n23)cc1`, the GI50 is 23 µM (inactive) in the assay with MDA-MB-231; 3.9 µM (inactive) in the assay on Malme-3M; 28.5 µM (inactive) in the assay on CAKI-1; 9.33 µM (inactive) in the assay on PC-3; 6.43 µM (inactive) in the assay on SK-MEL-5; 18 µM (inactive) in the assay on T47D. The GI50 in the assay with NCI-H23 is 27.4 µM (inactive); in the assay on A498, 23.7 µM (inactive); in the assay on OVCAR-5 it was 32.3 µM (inactive); in the assay on IGROV-1, 8.09 µM (inactive); in the assay on ACHN it was 36.6 µM (inactive); in the assay with K562, 3.31 µM (inactive). Moreover, the GI50 is 4.92 µM (inactive) in the assay on NCI/ADR-RES; 21.6 µM (inactive) in the assay on Hs-578T; 16.4 µM (inactive) in the assay on COLO 205; 28.2 µM (inactive) with DU-145; 8.41 µM (inactive) in the assay with NCI-H460; 9.84 µM (inactive) in the assay with HCT-116. In addition, the GI50 in the assay on SF-268 is 18.5 µM (inactive).

The values above are taken from ChEMBL document CHEMBL1201862, “PubChem BioAssay data set” (2004).
